Calls of active or inactive are those of the source. The rule behind the calls is not given here.
Key:
[1] = target: T1, Programmed cell death protein 1/Programmed cell death 1 ligand 1 (Homo sapiens, UniProt Q15116+Q9NZQ7); test: Inhibition of PD1/PD-L1 (unknown origin); format: protein-complex assay
CT26 [2] = test: Antitumor activity against mouse CT26 cells allografted in BALB/c mouse assessed as tumor growth inhibition at 30 mg/kg, ip for 48 hrs measured for 14 days relative to control; format: functional; conditions: 336 h, time 14 day, read-out: TGI
[3] = Toxicity in BALB/c mouse allografted with mouse CT26 cells assessed as unusual behaviour at 30 mg/kg, ip for 48 hrs measured for 14 days relative to control; format: organism-based; conditions: in vivo, 336 h, time 14 day
[4] = Toxicity in BALB/c mouse allografted with mouse CT26 cells assessed as body weight change at 30 mg/kg, ip for 48 hrs measured for 14 days relative to control; format: organism-based; conditions: in vivo, 336 h, time 14 day
[5] = target: T1, Programmed cell death protein 1/Programmed cell death 1 ligand 1; test: Inhibition of PD1/PD-L1 (unknown origin) protein-protein interaction measured after 135 mins by TR-FRET assay relative to control; format: protein-complex assay
[6] = Toxicity in BALB/c mouse allografted with mouse CT26 cells assessed as body weight change at 15 mg/kg, ip for 48 hrs measured for 14 days relative to control; format: organism-based; conditions: in vivo, 336 h, time 14 day
CT26 [7] = test: Antiproliferative activity against mouse CT26 cells assessed as inhibition of cell growth incubated for 48 hrs by MTT assay; format: functional, cell-based; conditions: CT26, 48 h
CT26 [8] = test: Antitumor activity against […] in BALB/c mouse assessed as increase in infiltration of CD4+ T cells into tumor cells at 15 mg/kg, ip for 48 hrs measured for 14 days relative to control; format: functional, organism-based
CT26 [9] = test: Antitumor activity against mouse CT26 cells allografted in BALB/c mouse assessed as tumor growth inhibition at 15 mg/kg, ip for 48 hrs measured for 14 days in presence of 5-Fu relative to control; format: functional; conditions: read-out: TGI
CT26 [10] = test: Antitumor activity against mouse CT26 cells allografted in BALB/c mouse assessed as tumor growth inhibition at 15 mg/kg, ip for 48 hrs measured for 14 days relative to control; format: functional; conditions: 336 h, time 14 day, read-out: TGI
CT26 [11] = test: Antitumor activity against […] in BALB/c mouse assessed as increase in infiltration of CD4+ T cells into tumor cells at 15 mg/kg, ip for 48 hrs in presence of 5-Fu by immunohistochemistry analysis; format: functional, organism-based
[12] = Toxicity in BALB/c mouse allografted with mouse CT26 cells assessed as unusual behaviour at 15 mg/kg, ip for 48 hrs measured for 14 days relative to control; format: organism-based; conditions: in vivo, 336 h, time 14 day
CT26 [13] = test: Antiproliferative activity against […] cells assessed as inhibition of cell growth at 11.11 uM incubated for 48 hrs by MTT assay; format: functional; conditions: Mus musculus
CT26 [14] = test: Antitumor activity against mouse CT26 cells allografted in BALB/c mouse assessed as tumor growth inhibition at 15 mg/kg, ip for 24 hrs measured for 14 days relative to control; format: functional; conditions: 336 h, time 14 day, read-out: TGI
[15] = Toxicity in BALB/c mouse allografted with mouse CT26 cells assessed as unusual behaviour at 15 mg/kg, ip for 24 hrs measured for 14 days relative to control; format: organism-based; conditions: in vivo, 336 h, time 14 day
[16] = Toxicity in BALB/c mouse allografted with mouse CT26 cells assessed as body weight change at 15 mg/kg, ip for 24 hrs measured for 14 days relative to control; format: organism-based; conditions: in vivo, 336 h, time 14 day

T1 sequence (Q15116 whole entry): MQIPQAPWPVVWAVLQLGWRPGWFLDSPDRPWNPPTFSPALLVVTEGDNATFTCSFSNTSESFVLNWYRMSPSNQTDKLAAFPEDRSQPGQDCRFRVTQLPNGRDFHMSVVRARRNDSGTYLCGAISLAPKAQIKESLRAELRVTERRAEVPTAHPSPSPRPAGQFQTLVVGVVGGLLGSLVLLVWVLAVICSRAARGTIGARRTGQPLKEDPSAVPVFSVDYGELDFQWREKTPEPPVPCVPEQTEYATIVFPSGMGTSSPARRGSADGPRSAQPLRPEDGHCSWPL
T1 sequence (Q9NZQ7 whole entry): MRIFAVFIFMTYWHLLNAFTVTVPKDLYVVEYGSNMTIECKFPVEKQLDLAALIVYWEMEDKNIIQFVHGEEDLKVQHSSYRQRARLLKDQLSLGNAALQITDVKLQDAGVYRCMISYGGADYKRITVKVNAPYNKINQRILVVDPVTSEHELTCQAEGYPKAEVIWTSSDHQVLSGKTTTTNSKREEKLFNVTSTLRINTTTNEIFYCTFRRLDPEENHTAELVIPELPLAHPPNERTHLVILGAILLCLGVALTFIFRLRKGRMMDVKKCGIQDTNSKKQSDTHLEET

Work on C[C@@](CO)(NCc1cc(Cl)c(O[C@H]2CCc3c(-c4cccc5c4CC[C@@H]5Oc4nc(OCc5cncc(S(C)(=O)=O)c5)c(CN[C@@](C)(CO)C(=O)O)cc4Cl)cccc32)nc1OCc1cncc(S(C)(=O)=O)c1)C(=O)O yielded an IC50 [1] of 0.058 nM.
In the case of Cc1c(-c2nc3cc(CN4CC[C@@](C)(C(=O)O)C4)cc(C#N)c3o2)cccc1-c1cccc(NC(=O)c2nc3c(n2C)CCN(C[C@@H](C)O)C3)c1Cl, the IC50 [1] is reported as under 10 nM.
For O=c1[nH]cc(F)c(=O)[nH]1 [FLUOROURACIL], the inhibition in vivo at 30 mg/kg (CT26 [2]) was 29.8%, the Activity [3] was “Non-Toxic” and the Activity [4] was “Non-Toxic”.
Work on Cc1c(COc2ccc(CNC(CO)(CO)CO)c(OCc3nc(-c4ccc(F)cc4)cs3)c2)cccc1-c1cccc(OCCCN2CCC(O)CC2)c1C yielded an IC50 [5] of 167 nM.
For Cc1c(COc2ccc(CNC(CO)(CO)CO)c(OCc3nc(-c4ccc(F)cc4)cs3)c2)cccc1-c1cccc(OCCCN2CCC(CO)CC2)c1, the IC50 [5] was 398 nM.
Cc1c(COc2ccc(CNC(CO)(CO)CO)c(OCc3nnc(-c4ccccc4)o3)c2)cccc1-c1cccc(OCCCN2CCOCC2)c1 showed an IC50 [5] of 642 nM.
In the case of Cc1c(COc2ccc(CNC(CO)(CO)CO)c(OCc3nnc(-c4ccccc4)o3)c2)cccc1-c1cccc(OCCCN2CCC(CO)CC2)c1, the Activity [6] is reported as “Non-Toxic”, the IC50 (CT26 [7]) is reported as 19800 nM and the Activity (CT26 [8]) is reported as “Active”. The inhibition in vivo at 15 mg/kg (CT26 [9]) was 64.6%, the inhibition in vivo at 15 mg/kg (CT26 [10]) was 35.7% and the Activity (CT26 [11]) was “Active”. The Activity [12] was “Non-Toxic”, the IC50 [5] was 38 nM and the inhibition at 11.11 µM (CT26 [13]) was 75%.
Cc1ccccc1-c1cccc(COc2ccc(CNC(CO)(CO)CO)c(OCc3nnc(-c4ccccc4)o3)c2)c1C gave an IC50 [5] of 150 nM.
With COc1nc(OCc2cccc(-c3ccccc3)c2C)ccc1CNCCNC(C)=O the IC50 (CT26 [7]) was 3350 nM, the inhibition in vivo at 15 mg/kg (CT26 [14]) was 22.9% and the Activity [15] was “Non-Toxic”. The Activity [16] was “Non-Toxic” and the inhibition at 11.11 µM (CT26 [13]) was 75%.
Work on Cc1c(-c2nc3cc(CN4CCCC[C@H]4C(=O)O)cc(Cl)c3o2)cccc1-c1cccc(NC(=O)c2ccc(CNCCO)cn2)c1Cl yielded an IC50 [1] of under 10 nM.
In the case of CS(=O)(=O)c1cncc(COc2nc(O[C@H]3CCc4c(-c5cccc6c5CC[C@@H]6Oc5nc(OCc6cncc(S(C)(=O)=O)c6)c(CN6C[C@@H](O)C[C@H]6C(=O)O)cc5Cl)cccc43)c(Cl)cc2CN2C[C@@H](O)C[C@H]2C(=O)O)c1, the IC50 [1] is reported as 0.051 nM.

— ChEMBL document CHEMBL4808253, “Discovery of 1,3,4-oxadiazole derivatives as potential antitumor agents inhibiting the programmed cell death-1/programmed cell death-ligand 1 interaction” (Bioorg Med Chem, 2021)
